How the values were obtained:
[1] = target: T1, Mps-1 kinase (Homo sapiens, UniProt P33981); assay: Mps-1 kinase assay with 10 μM ATP (TR-FRET)
T1 sequence (P33981 1-857): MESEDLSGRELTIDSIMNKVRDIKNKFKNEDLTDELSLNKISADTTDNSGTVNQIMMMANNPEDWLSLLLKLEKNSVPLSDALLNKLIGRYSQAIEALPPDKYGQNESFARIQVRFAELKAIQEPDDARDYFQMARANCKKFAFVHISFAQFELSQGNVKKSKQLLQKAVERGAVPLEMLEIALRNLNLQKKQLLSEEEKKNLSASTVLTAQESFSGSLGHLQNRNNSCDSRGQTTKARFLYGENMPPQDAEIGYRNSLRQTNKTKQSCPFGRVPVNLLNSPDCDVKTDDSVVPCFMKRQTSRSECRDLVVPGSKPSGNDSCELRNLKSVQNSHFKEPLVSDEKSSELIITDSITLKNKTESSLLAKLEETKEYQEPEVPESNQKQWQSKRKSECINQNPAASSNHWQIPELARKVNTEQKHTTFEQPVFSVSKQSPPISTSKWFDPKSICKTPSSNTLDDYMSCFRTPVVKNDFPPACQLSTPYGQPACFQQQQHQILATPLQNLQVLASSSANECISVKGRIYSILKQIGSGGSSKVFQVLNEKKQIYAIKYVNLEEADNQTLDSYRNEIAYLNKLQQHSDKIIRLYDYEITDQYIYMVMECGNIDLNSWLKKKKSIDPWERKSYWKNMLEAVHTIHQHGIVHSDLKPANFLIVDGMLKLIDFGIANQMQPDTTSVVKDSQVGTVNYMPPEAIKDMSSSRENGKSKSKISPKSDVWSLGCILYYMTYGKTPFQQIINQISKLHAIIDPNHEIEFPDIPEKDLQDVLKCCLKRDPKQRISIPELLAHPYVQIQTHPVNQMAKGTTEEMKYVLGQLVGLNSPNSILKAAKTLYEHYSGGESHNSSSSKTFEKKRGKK

[2] = target: T1, Mps-1 kinase; assay: Mps-1 kinase assay with 2 mM ATP (TR-FRET)
[3] = Hydrolytic stability assay at pH 2; format: physicochemical; conditions: buffer pH 2, 37° C., compounds of the invention
Summary of the method: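 Compound from a 10 mM DMSO stock was diluted in acetonitrile, added to pH 2 buffer and incubated at 37° C. HPLC injections were made at time zero and after 1, 2 and 24 hrs. Decay (%) was calculated from peak areas relative to the time-zero injection.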

IC50 [1] | IC50 [2] | Hydrolysis at pH 2; Decay in % after 24 h [3] | Compound
≤ 1 nM | ≤ 1 nM | <10% | CNC(=O)c1ccc(Nc2nc3ccc(-c4ccc(C(=O)NCc5ccc(F)cc5)cc4)cn3n2)c(OC)c1 [Example 02.13, 4-[(6-{4-[(4-fluorobenzyl)carbamoyl]phenyl}[1,2,4]triazolo[1,5-α]pyridin-2-yl)amino]-3-methoxy-N-methylbenzamide]
≤ 1 nM | 2.4 nM | <10% | COc1cc(C(=O)NC(C)(C)C)ccc1Nc1nc2ccc(-c3ccc(C(=O)NCc4ccc(F)cc4)cc3)cn2n1 [Example 02.14, N-tert-butyl-4-[(6-{4-[(4-fluorobenzyl)carbamoyl]phenyl}[1,2,4]triazolo-[1,5-α]pyridin-2-yl)amino]-3-methoxybenzamide]
≤ 1 nM | ≤ 1 nM | <10% | COc1cc(C(=O)NCCS(C)(=O)=O)ccc1Nc1nc2ccc(-c3ccc(C(=O)NCc4ccc(F)cc4)cc3)cn2n1 [Example 02.15, 4-[(6-{4-[(4-fluorobenzyl)carbamoyl]phenyl}[1,2,4]triazolo[1,5-α]pyridin-2-yl)amino]-3-methoxy-N-[2-(methylsulfonyl)ethyl]benzamide]
≤ 1 nM | 3.8 nM | <10% | COc1ccc(Nc2nc3ccc(-c4ccc(C(=O)NCc5ccc(F)cc5)cc4)cn3n2)c(OC)c1 [Example 02.16, 4-{2-[(2,4-dimethoxyphenyl)amino][1,2,4]triazolo[1,5-α]pyridin-6-yl}-N-(4-fluorobenzyl)benzamide]
≤ 1 nM | 4.6 nM | <10% | COc1cc(C(=O)NCC(F)(F)F)ccc1Nc1nc2ccc(-c3ccc(C(=O)NCc4ccc(F)cc4)cc3)cn2n1 [Example 02.17, 4-[(6-{4-[(4-fluorobenzyl)carbamoyl]phenyl}[1,2,4]triazolo[1,5-α]pyridin-2-yl)amino]-3-methoxy-N-(2,2,2-trifluoroethyl)benzamide]
≤ 1 nM | ≤ 1 nM | <10% | CC(C)(CO)NC(=O)c1ccc(Nc2nc3ccc(-c4ccc(C(=O)NCc5ccc(F)cc5)cc4)cn3n2)c(OCC(F)(F)F)c1 [Example 02.18, 4-[(6-{4-[(4-fluorobenzyl)carbamoyl]phenyl}[1,2,4]triazolo[1,5-α]pyridin-2-yl)amino]-N-(1-hydroxy-2-methylpropan-2-yl)-3-(2,2,2-trifluoroethoxy)-benzamide]
≤ 1 nM | ≤ 1 nM | <10% | CCOc1cc(C(=O)NCCS(C)(=O)=O)ccc1Nc1nc2ccc(-c3ccc(C(=O)NCc4ccc(F)cc4)cc3)cn2n1 [Example 02.19, 3-ethoxy-4-[(6-{4-[(4-fluorobenzyl)carbamoyl]phenyl}[1,2,4]triazolo[1,5-α]pyridin-2-yl)amino]-N-[2-(methylsulfonyl)ethyl]benzamide]
≤ 1 nM | 1.7 nM | <10% | CCNC(=O)c1ccc(Nc2nc3ccc(-c4ccc(C(=O)NCc5ccc(F)cc5)cc4)cn3n2)c(OC)c1 [Example 02.20, N-ethyl-4-[(6-{4-[(4-fluorobenzyl)carbamoyl]phenyl}[1,2,4]triazolo[1,5-α]-pyridin-2-yl)amino]-3-methoxybenzamide]
≤ 1 nM | 2.4 nM | <10% | CCOc1cc(C(=O)NC(C)(C)C)ccc1Nc1nc2ccc(-c3ccc(C(=O)NCc4ccc(F)cc4)cc3)cn2n1 [Example 02.21, N-tert-butyl-3-ethoxy-4-[(6-{4-[(4-fluorobenzyl)carbamoyl]phenyl}[1,2,4]-triazolo[1,5-α]pyridin-2-yl)amino]benzamide]
≤ 1 nM | ≤ 1 nM | <10% | CC(C)(O)CNC(=O)c1ccc(Nc2nc3ccc(-c4ccc(C(=O)NCc5ccc(F)cc5)cc4)cn3n2)c(OCC(F)(F)F)c1 [Example 02.22, 4-[(6-{4-[(4-fluorobenzyl)carbamoyl]phenyl}[1,2,4]triazolo[1,5-α]pyridin-2-yl)amino]-N-(2-hydroxy-2-methylpropyl)-3-(2,2,2-trifluoroethoxy)benzamide]
≤ 1 nM | ≤ 1 nM | <10% | O=C(NCc1ccc(F)cc1)c1ccc(-c2ccc3nc(Nc4ccc(C(=O)NCC(F)(F)F)cc4OCC(F)(F)F)nn3c2)cc1 [Example 02.23, 4-[(6-{4-[(4-fluorobenzyl)carbamoyl]phenyl}[1,2,4]triazolo[1,5-α]pyridin-2-yl)amino]-3-(2,2,2-trifluoroethoxy)-N-(2,2,2-trifluoroethyl)benzamide]
≤ 1 nM | 5.9 nM | <10% | Cc1cc(N(C)C)ccc1Nc1nc2ccc(-c3ccc(C(=O)NCc4ccc(F)cc4)cc3)cn2n1 [Example 02.24, 4-(2-{[4-(dimethylamino)-2-methylphenyl]amino}[1,2,4]triazolo[1,5-α]-pyridin-6-yl)-N-(4-fluorobenzyl)benzamide]
≤ 1 nM | 6.9 nM | <10% | COc1cc(C(=O)NC(C)(C)CO)ccc1Nc1nc2ccc(-c3ccc(C(=O)NCc4ccc(F)cc4)c(F)c3)cn2n1 [Example 03.1, 2-fluoro-N-(4-fluorobenzyl)-4-[2-({4-[(1-hydroxy-2-methylpropan-2-yl)-carbamoyl]-2-methoxyphenyl}amino)[1,2,4]triazolo[1,5-α]pyridin-6-yl]-benzamide]
≤ 1 nM | 16 nM | <10% | COc1cc(C(=O)NC(C)(C)CO)ccc1Nc1nc2ccc(-c3ccc(C(=O)NCc4ccc(F)cc4)c(C)c3)cn2n1 [Example 04.1, N-(4-fluorobenzyl)-4-[2-({4-[(1-hydroxy-2-methylpropan-2-yl)carbamoyl]-2-methoxyphenyl}amino)[1,2,4]triazolo[1,5-α]pyridin-6-yl]-2-methylbenz-amide]
1.4 nM | 26 nM | <10% | CCOc1cc(C(=O)N(CC)CCOC)ccc1Nc1nc2ccc(-c3ccc(C(=O)NCC4CC4)cc3)cn2n1 [Example 06.2, 4-[(6-{4-[(cyclopropylmethyl)carbamoyl]phenyl}[1,2,4]triazolo[1,5-α]-pyridin-2-yl)amino]-3-ethoxy-N-ethyl-N-(2-methoxyethyl)benzamide]
≤ 1 nM | 21 nM | <10% | CCOc1cc(C(=O)NCCO)ccc1Nc1nc2ccc(-c3ccc(C(=O)NCC4CC4)cc3)cn2n1 [Example 06.3, 4-[(6-{4-[(cyclopropylmethyl)carbamoyl]phenyl}[1,2,4]triazolo[1,5-α]-pyridin-2-yl)amino]-3-ethoxy-N-(2-hydroxyethyl)benzamide]
≤ 1 nM | 11 nM | <10% | O=C(NCCO)c1ccc(Nc2nc3ccc(-c4ccc(C(=O)NCC5CC5)cc4)cn3n2)c(OCC(F)(F)F)c1 [Example 06.4, 4-[(6-{4-[(cyclopropylmethyl)carbamoyl]phenyl}[1,2,4]triazolo[1,5-α]-pyridin-2-yl)amino]-N-(2-hydroxyethyl)-3-(2,2,2-trifluoroethoxy)benzamide]
≤ 1 nM | 19 nM | <10% | CCNC(=O)c1ccc(Nc2nc3ccc(-c4ccc(C(=O)NCC5CC5)cc4)cn3n2)c(OCC(F)(F)F)c1 [Example 06.5, 4-[(6-{4-[(cyclopropylmethyl)carbamoyl]phenyl}[1,2,4]triazolo[1,5-α]-pyridin-2-yl)amino]-N-ethyl-3-(2,2,2-trifluoroethoxy)benzamide]
≤ 1 nM | 14 nM | <10% | CCNC(=O)c1ccc(Nc2nc3ccc(-c4ccc(C(=O)NCc5cccc(F)c5)cc4)cn3n2)c(OC)c1 [Example 07.1, N-ethyl-4-[(6-{4-[(3-fluorobenzyl)carbamoyl]phenyl}[1,2,4]triazolo[1,5-α]-pyridin-2-yl)amino]-3-methoxybenzamide]
≤ 1 nM | 4.3 nM | <10% | COc1cc(C(=O)NC(C)(C)CO)ccc1Nc1nc2ccc(-c3ccc(C(=O)NCc4ccc(F)cc4)c(OC)c3)cn2n1 [Example 08.1, N-(4-fluorobenzyl)-4-[2-({4-[(1-hydroxy-2-methylpropan-2-yl)carbamoyl]-2-methoxyphenyl}amino)[1,2,4]triazolo[1,5-α]pyridin-6-yl]-2-methoxybenz-amide]
